Source: patent US5284826A, “0-hydroxyethyl and acyloxyethyl derivatives of [ser]^8 cyclosporins” (Sandoz Ltd., priority 1989, dated 1994)

Assay: Stability of solid-state forms
Format: physicochemical
Conditions: B form (hydrate from acetone/water) compared with amorphous form and A and C modifications
Description: Cyclosporins according to the invention may exist in the solid state in amorphous form or in one or more crystalline forms. For example, the compound of Example 2 below exists in amorphous form or in at least three crystalline forms, distinguishable by X-ray diffraction and designated the A, B and C modifications.

SMILES: C/C=C/C[C@@H](C)[C@@H](O)[C@H]1C(=O)N[C@@H](CC)C(=O)N(C)CC(=O)N(C)[C@@H](CC(C)C)C(=O)N[C@@H](C(C)C)C(=O)N(C)[C@@H](CC(C)C)C(=O)N[C@@H](C)C(=O)N[C@H](COCCO)C(=O)N(C)[C@@H](CC(C)C)C(=O)N(C)[C@@H](CC(C)C)C(=O)N(C)[C@@H](C(C)C)C(=O)N1C [Example 2, [O-(2-hydroxyethyl)(D)Ser]^8 -Ciclosporin]
- stability of crystal form: most stable
